Test results from patent publication US7211572B2 (Japan Tobacco Inc., priority 2003, dated 2007).
Where a name gives a salt, the structure may show the parent alone.

Target: T1, HIV integrase (Human immunodeficiency virus type 1 group M subtype B, UniProt P12497, F1332H)
T1 construct: HIV integrase full length gene; made in house; host or cells: Escherichia coli BL21(DE3), plasmid pET21a-INH
Test: Determination of enzyme (HIV integrase) inhibitory activity
Format: biochemical
Details: recombinant HIV integrase (F185H), strand transfer ELISA, absorbance at 450 nm
In short: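 Full-length integrase with F185H, expressed in E. coli and purified, was reacted for 60 min at 37 °C with compound and biotinylated donor DNA bound to streptavidin plates. Target DNA was added for 10 min, then anti-digoxigenin-peroxidase detection at A450; IC50 from % inhibition versus enzyme-free blank.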

Structure (SMILES)	IC50
CC(=O)N(C)c1cn2ccn(Cc3cccc(Cl)c3)c(=O)c2c(O)c1=O [Example 259, N-[2-(3-chlorobenzyl)-9-hydroxy-1,8-dioxo-1,8-dihydro-2H-pyrido[1,2-a]pyrazin-7-yl]-N-methylacetamide]	< 10 nM
COCC(=O)Nc1cn2ccn(Cc3cccc(Cl)c3)c(=O)c2c(O)c1=O [Example 260, N-[2-(3-chlorobenzyl)-9-hydroxy-1,8-dioxo-1,8-dihydro-2H-pyrido[1,2-a]pyrazin-7-yl]-2-methoxyacetamide]	< 10 nM
COC(=O)c1cn2c(c(O)c1=O)C(=O)N(Cc1cccc(Cl)c1)CC2 [Example 261, methyl 2-(3-chlorobenzyl)-9-hydroxy-1,8-dioxo-1,3,4,8-tetrahydro-2H-pyrido[1,2-a]pyrazine-7-carboxylate]	10 to 100 nM
CN(C)C(=O)Nc1cn2ccn(Cc3cccc(Cl)c3)c(=O)c2c(O)c1=O [Example 262, 3-[2-(3-chlorobenzyl)-9-hydroxy-1,8-dioxo-1,8-dihydro-2H-pyrido[1,2-a]pyrazin-7-yl]-1,1-dimethylurea]	< 10 nM
COC(=O)Nc1cn2ccn(Cc3cccc(Cl)c3)c(=O)c2c(O)c1=O [Example 263, methyl[2-(3-chlorobenzyl)-9-hydroxy-1,8-dioxo-1,8-dihydro-2H-pyrido[1,2-a]pyrazin-7-yl]carbamate]	< 10 nM
O=C1c2c(O)c(=O)c(-c3nccs3)cn2CCN1CCCc1c(F)cccc1Cl [Example 264, 2-[3-(2-chloro-6-fluorophenyl)propyl]-9-hydroxy-7-(thiazol-2-yl)-3,4-dihydro-2H-pyrido[1,2-a]pyrazine-1,8-dione]	< 10 nM
CC(=O)C(=O)Nc1cn2ccn(Cc3cccc(Cl)c3)c(=O)c2c(O)c1=O [Example 265, N-[2-(3-chlorobenzyl)-9-hydroxy-1,8-dioxo-1,8-dihydro-2H-pyrido[1,2-a]pyrazin-7-yl]-2-oxopropionamide]	< 10 nM
O=C(NCc1ccccc1)c1cn2c(c(O)c1=O)C(=O)N(Cc1cccc(Cl)c1)CC2 [Example 266, N-benzyl-2-(3-chlorobenzyl)-9-hydroxy-1,8-dioxo-1,3,4,8-tetrahydro-2H-pyrido[1,2-a]pyrazine-7-carboxamide]	< 10 nM
O=C1c2c(O)c(=O)c(-c3cc[nH]n3)cn2CCN1Cc1cccc(Cl)c1 [Example 267, 2-(3-chlorobenzyl)-9-hydroxy-7-(1H-pyrazol-3-yl)-3,4-dihydro-2H-pyrido[1,2-a]pyrazine-1,8-dione]	10 to 100 nM
O=C1c2c(O)c(=O)c(-c3ccncn3)cn2CCN1Cc1cccc(Cl)c1 [Example 268, 2-(3-chlorobenzyl)-9-hydroxy-7-(pyrimidin-4-yl)-3,4-dihydro-2H-pyrido[1,2-a]pyrazine-1,8-dione]	< 10 nM
O=C(NCc1cccc2ccccc12)c1cn2c(c(O)c1=O)C(=O)N(Cc1cccc(Cl)c1)CC2 [Example 269, N-(naphthalen-1-ylmethyl)-2-(3-chlorobenzyl)-9-hydroxy-1,8-dioxo-1,3,4,8-tetrahydro-2H-pyrido [1,2-a]pyrazine-7-carboxamide]	< 10 nM
O=C(NC(c1ccccc1)c1ccccc1)c1cn2c(c(O)c1=O)C(=O)N(Cc1cccc(Cl)c1)CC2 [Example 270, N-benzhydryl-2-(3-chlorobenzyl)-9-hydroxy-1,8-dioxo-1,3,4,8-tetrahydro-2H-pyrido[1,2-a]pyrazine-7-carboxamide]	10 to 100 nM
O=C1c2c(O)c(=O)c(-c3ncccn3)cn2CCN1Cc1cccc(Cl)c1 [Example 271, 2-(3-chlorobenzyl)-9-hydroxy-7-(pyrimidin-2-yl)-3,4-dihydro-2H-pyrido[1,2-a]pyrazine-1,8-dione hydrochloride]	10 to 100 nM
CC(C)(C(=O)c1cn2c(c(O)c1=O)C(=O)N(Cc1cccc(Cl)c1)CC2)c1ccccc1 [Example 272, 2-(3-chlorobenzyl)-9-hydroxy-7-(2-methyl-2-phenylpropionyl)-3,4-dihydro-2H-pyrido[1,2-a]pyrazine-1,8-dione]	10 to 100 nM
CC(C)(C)c1ccc(CNC(=O)c2cn3c(c(O)c2=O)C(=O)N(Cc2cccc(Cl)c2)CC3)cc1 [Example 273, N-(4-tert-butylbenzyl)-2-(3-chlorobenzyl)-9-hydroxy-1,8-dioxo-1,3,4,8-tetrahydro-2H-pyrido [1,2-a] pyrazine-7-carboxamide]	10 to 100 nM
O=C(Nc1cn2ccn(Cc3cccc(Cl)c3)c(=O)c2c(O)c1=O)C1CCCC1 [Example 274, N-[2-(3-chlorobenzyl)-9-hydroxy-1,8-dioxo-1,8-dihydro-2H-pyrido[1,2-a]pyrazin-7-yl)cyclopentanecarboxamide]	10 to 100 nM
O=C(Cc1ccc(F)cc1)Nc1cn2ccn(Cc3cccc(Cl)c3)c(=O)c2c(O)c1=O [Example 275, N-[2-(3-chlorobenzyl)-9-hydroxy-1,8-dioxo-1,8-dihydro-2H-pyrido[1,2-a]pyrazin-7-yl]-2-(4-fluorophenyl)acetamide]	< 10 nM
CC(C)(C)C(=O)Nc1cn2ccn(Cc3cccc(Cl)c3)c(=O)c2c(O)c1=O [Example 276, N-[2-(3-chlorobenzyl)-9-hydroxy-1,8-dioxo-1,8-dihydro-2H-pyrido[1,2-a]pyrazin-7-yl]-2,2-dimethylpropionamide]	< 10 nM
CC(C)(C(=O)Nc1cn2ccn(Cc3cccc(Cl)c3)c(=O)c2c(O)c1=O)c1ccccc1 [Example 277, N-[2-(3-chlorobenzyl)-9-hydroxy-1,8-dioxo-1,8-dihydro-2H-pyrido[1,2-a]pyrazin-7-yl]-2-phenylisobutyramide]	< 10 nM
O=C(Nc1cn2ccn(Cc3cccc(Cl)c3)c(=O)c2c(O)c1=O)c1ccc(F)cc1 [Example 278, N-[2-(3-chlorobenzyl)-9-hydroxy-1,8-dioxo-1,8-dihydro-2H-pyrido[1,2-a]pyrazin-7-yl]-4-fluorobenzamide]	< 10 nM
O=C(Nc1cn2ccn(Cc3cccc(Cl)c3)c(=O)c2c(O)c1=O)c1ccccn1 [Example 279, N-[2-(3-chlorobenzyl)-9-hydroxy-1,8-dioxo-1,8-dihydro-2H-pyrido[1,2-a]pyrazin-7-yl]pyridine-2-carboxamide trifluoroacetate]	< 10 nM
CC(C)Nc1cn2ccn(Cc3cccc(Cl)c3)c(=O)c2c(O)c1=O [Example 280, 2-(3-chlorobenzyl)-9-hydroxy-7-isopropylamino-2H-pyrido [1,2-a]pyrazine-1,8-dione hydrochloride]	10 to 100 nM
CCN(CC)c1cn2ccn(Cc3cccc(Cl)c3)c(=O)c2c(O)c1=O [Example 281, 2-(3-chlorobenzyl)-7-diethylamino-9-hydroxy-2H-pyrido[1,2-a]pyrazine-1,8-dione hydrochloride]	10 to 100 nM
O=C1c2c(O)c(=O)c(-c3ccccn3)cn2CCN1Cc1cccc(Cl)c1 [Example 282, 2-(3-chlorobenzyl)-9-hydroxy-7-(pyridin-2-yl)-3,4-dihydro-2H-pyrido[1,2-a]pyrazine-1,8-dione hydrochloride]	< 10 nM
CC(C)CNc1cn2ccn(Cc3cccc(Cl)c3)c(=O)c2c(O)c1=O [Example 283, 2-(3-chlorobenzyl)-9-hydroxy-7-isobutylamino-2H-pyrido[1,2-a]pyrazine-1,8-dione hydrochloride]	10 to 100 nM
CC(C)C(C(=O)Nc1cn2ccn(Cc3cccc(Cl)c3)c(=O)c2c(O)c1=O)C(C)C [Example 284, N-[2-(3-chlorobenzyl)-9-hydroxy-1,8-dioxo-1,8-dihydro-2H-pyrido[1,2-a]pyrazin-7-yl] -2-isopropyl-3-methylbutyramide]	10 to 100 nM
